Experimental findings from patent US20160303056A1, “FASTING MIMICKING DIET (FMD) AND GLUCOSE LOWERING DRUGS PROTECT NORMAL CELLS AND GENERATE CANCER SENSITIZING CONDITIONS IN RESPONSE TO STANDARD AND HIGH GLUCOSE CONDITIONS INDUCED BY RAPAMYCIN AND DEXAMETHASONE” (UNIVERSITY OF SOUTHERN CALIFORNIA, priority 2015, published 2016) are described below.

A short description of series [1]: Blood glucose levels in mice injected ip with metformin. The series is classed as in vivo, mouse. The settings on record: metformin 50 mg/kg ip, saline for control mice (FIG. 1E).
A short description of series [2]: Circulating glucose levels in mice given rapamycin or dexamethasone, with or without insulin, STS or FMD. The format is in vivo, mouse (C57BL/6). The settings on record: rapamycin or dexamethasone ip daily for 14 days, compared with ad lib (FIG. 1B).
In a further series the test system is C57BL/6 mice. The settings on record: mouse, in vivo.

Each structure is given as a SMILES string.

Turning to `CN(C)C(=N)NC(=N)N` [Metformin, N,N-Dimethylimidodicarbonimidic diamide], the circulating glucose levels result in series [1] was “reducing circulating glucose levels”.

On to `C[C@@H]1C[C@H]2[C@@H]3CCC4=CC(=O)C=C[C@]4(C)[C@@]3(F)[C@@H](O)C[C@]2(C)[C@@]1(O)C(=O)CO` [dexamethasone], for which the circulating glucose levels result in series [2] was “caused an increase in glucose levels”. Besides, the “sensitization of mice to chemotherapy (mortality)” value in the series on C57BL/6 mice is listed as “increased mortality”.

Consider `CO[C@H]1C[C@@H]2CC[C@@H](C)[C@@](O)(O2)C(=O)C(=O)N2CCCC[C@H]2C(=O)O[C@H]([C@H](C)C[C@@H]2CC[C@@H](O)[C@H](OC)C2)CC(=O)[C@H](C)/C=C(\C)[C@@H](O)[C@@H](OC)C(=O)[C@H](C)C[C@H](C)/C=C/C=C/C=C/1C` [rapamycin], for which the circulating glucose levels result in series [2] was “caused an increase in glucose levels”. In addition, in the series with C57BL/6 mice, the “sensitization of mice to chemotherapy (mortality)” value is listed as “increased mortality”.
